Measurements: patent publication US6201015A, “Therapeutic method for thrombocytopathy treatment” (priority 1996, dated 2001)
Like-named read-outs stand apart in the source and are kept apart here.

Tests used:
[1] = system: platelets; settings: background; cited from earlier work
[2] = system: platelets (platelet rich plasma); test: Action on Platelet Aggregation (3): ADP-induced platelet aggregation in the presence of SQ-29548; type: cell-based, human (healthy subject); settings: concentration within the range of 0.1 to 10 μM, Control 38 ± 4.9, *P<0.05 paired t-test
Method: A blood specimen taken from a healthy subject was centrifuged to thereby separate platelet rich plasma (PRP) and platelet poor plasma (PPP). To PRP was added SQ-29548, a TXA2 antagonist, and 1 minute after, platelet aggregation was induced by ADP, and immediately after induction, any of Compounds 2 to 4 having the following structural formulae was added to PRP. The experiment was performed on one group comprising three subjects. The results are set forth in Table 6 (*: P<0.05, Paired t-test).
Compound 2 to 4 were respectively used at a concentration within the range of 0.1 to 10 μM.

[3] = cited from earlier work
[4] = cited from earlier work; remark: listed apart in the source
[5] = system: platelets (platelet rich plasma); test: Antagonistic Action on Inhibition of Platelet Aggregation (ADP-induced, SQ-29548 present, BPS or PGD2 as inhibitor); type: cell-based, human (healthy subject); settings: for IC50: Homo sapiens, Platelet, ADP-induced aggregation, SQ-29548
Method: A blood specimen sampled from a healthy subject was centrifuged to thereby separate platelet rich plasma (PRP) and platelet poor plasma (PPP). To the PRP was added SQ-29548, a TXA2 antagonist, and then Compound 1 was added one minute after, beraprost sodium (BPS), a prostacyclin derivative, or prostaglandin D2 (PGD2) was added to the PRP, and 1 minute thereafter, aggregation was induced by ADP. The 50% inhibitory concentration (IC50) of BPS or PGD2 was then calculated from the results. The experiment was performed on one group composed of three specimens. The results are set forth in Tables 3 and 4 (*: P<0.05, Paired t-test).

[6] = system: cAMP in the platelets; test: cAMP concentration in platelets stimulated with BPS (EIA kit); type: cell-based, human (healthy subject); settings: for cyclic AMP (× basal level): SQ-29548, five cases
Method: A blood specimen taken from a healthy subject was centrifuged to thereby separate platelet rich plasma (PRP). To PRP was added SQ-29548, a TXA2 antagonist, and then Compound 1 was added thereto. After 1 minute, BPS (100 nM) was added to PRP, and then the reaction was stopped by 5% TCA. Thereafter, cAMP in the platelets was extracted and the cAMP concentration was determined with an EIA kit (BIOTRAK cAMP EIA SYSTEM, Amersham). The experiment was carried out on one group composed of five cases. The results are shown in Table 5 (*: P<0.05, Paired t-test).

[7] = system: platelets (platelet rich plasma); test: Action on Platelet Aggregation (1): aggregation induction in PRP in the presence of SQ-29548; type: cell-based, human (healthy subject); settings: for Number of Aggregation Induction: PRP with SQ-29548, three samples
Method: A blood specimen sampled from a healthy subject was centrifuged to thereby separate platelet rich plasma (PRP) and platelet poor plasma (PPP). The agent SQ-29548 (refer to Prostaglandins, 1985;29;785), a TXA2 antagonist, was added to PRP, and 1 minute later, a test drug having the following structure (hereinafter referred to as "Compound 1") was added thereto. The experiment was conducted on one group comprising three samples.

[8] = system: platelets (platelet rich plasma); test: Action on Platelet Aggregation (2): ADP-induced platelet aggregation in the presence of SQ-29548; type: cell-based, human (healthy subject)
Method: A blood specimen sampled from a healthy subject was centrifuged to thereby separate platelet rich plasma (PRP) and platelet poor plasma (PPP). SQ-29548, a TXA2 antagonist, was added to PRP, and 1 minute later, platelet aggregation was induced by ADP, and immediately after induction, Compound 1 was added thereto. The experiment was carried out on one group comprising three samples. The test results are shown in Table 2 (*: P<0.05, Paired t-test).

[9] = background; cited from earlier work

## CCCCC[C@H](O)/C=C/[C@@H]1[C@@H](CC(=O)CCCCC(=O)O)[C@@H](O)C[C@H]1O [Compound 6-oxo-PGF1a, 6-oxo-PGF1a]
[1]
  known activity (in words): almost no physiological activity

## CC(C)(Oc1ccccc1)[C@H](O)/C=C/[C@@H]1[C@H]2c3cccc(CCC(=O)O)c3O[C@H]2C[C@H]1O (relative stereo) [Compound 4]
[2]
  Platelet Aggregation Rate: 54 ± 4.1%

## O=C(O)CCc1cccc2c1OC1CC(O)C(C=CC(O)COc3ccccc3)C21 (centres unmarked) [Compound 3]
[2]
  Platelet Aggregation Rate: 43 ± 5.3%

## CCCCC[C@H](O)/C=C/[C@@H]1[C@H]2C/C(=C/CCCC(=O)O)O[C@H]2C[C@H]1O [PGI2, prostaglandin I2]
[3]
  stability and duration of activity in vivo (in words): unstable in vivo and its activity is not long-lasting
[4]
  stability in neutral aqueous solution (in words): extremely unstable even in a neutral aqueous solution
[1]
  known activity (in words): strong antiplatelet activity and telangiectatic activity

## CC(C)(Oc1ccccc1)[C@H](O)/C=C/[C@@H]1[C@H]2c3cccc(CCC(=O)O)c3O[C@H]2C[C@H]1O [Compound 1]
[5]; Compound 1 0.1 and 1 μM against BPS or PGD2
  antagonism of inhibition of platelet aggregation (in words): physiologically antagonized inhibitory actions of BPS and PGD2 on platelet aggregation
[6]; BPS 100 nM, Compound 1 0.1 and 1 μM
  effect on cAMP production (in words): inhibited cAMP production of BPS in platelets
[6]; Compound 1 0.1 μM with BPS 100 nM, *P<0.05
  cyclic AMP (× basal level): 6.45 ± 1.4 × basal level
[6]; Compound 1 1 μM with BPS 100 nM, *P<0.05
  cyclic AMP (× basal level): 3.98 ± 0.9 × basal level
[7]; Compound 1 0.1 μM
  Number of Aggregation Induction: 0
[7]; Compound 1 1 μM
  Number of Aggregation Induction: 0
[7]; Compound 1 10 μM
  Number of Aggregation Induction: 0
[7]; in the presence of SQ-29548, 0.1-10 μM
  induction of platelet aggregation (in words): did not induce platelet aggregation
[8]; Compound 1 0.1 μM, without Compound 1: 52.0 ± 2.5, *P<0.05 paired t-test
  Platelet Aggregation Rate: 61.3 ± 2.9%
[8]; Compound 1 1 μM, without Compound 1: 52.0 ± 2.5, asterisk not given
  Platelet Aggregation Rate: 70.0 ± 3.0%
[8]; Compound 1 0.1 and 1 μM
  effect on aggregation of platelets (in words): enhanced aggregation of platelets

## CCCCC(C)(C)[C@H](O)/C=C/[C@@H]1[C@H]2c3cccc(CCC(=O)O)c3O[C@H]2C[C@H]1O (relative stereo) [Compound 2]
[2]
  Platelet Aggregation Rate: 45 ± 6.1%

## NC(=O)CC[C@@H]1NC(=O)[C@H](Cc2ccccc2)NC(=O)[C@H](Cc2ccc(O)cc2)NC(=O)CCSSC[C@@H](C(=O)N2CCC[C@H]2C(=O)N[C@H](CCCN=C(N)N)C(=O)NCC(N)=O)NC(=O)[C@H](CC(N)=O)NC1=O [DDAVP, 1-diamino 8-D-arginine vasopressin]
[9]
  adverse drug reactions (in words): may induce arterial thrombosis and/or hyponatremia

## CC#CCC(C)[C@H](O)/C=C/[C@@H]1[C@H]2c3cccc(CCCC(=O)O)c3O[C@H]2C[C@H]1O (mixture of isomers) [BPS, beraprost sodium]
[5]; Compound 1 0 μM, read-out: IC50 of BPS
  IC50: 0.00799 ± 0.0014 µM
[5]; in the presence of Compound 1 0.1 μM, read-out: IC50 of BPS
  IC50: 0.0211 ± 0.0047 µM
[5]; in the presence of Compound 1 1 μM, *P<0.05, read-out: IC50 of BPS
  IC50: 0.0367 ± 0.0074 µM
[6]; BPS 100 nM, Compound 1 0 μM
  cyclic AMP (× basal level): 8.46 ± 1.8 × basal level

## CCCCC[C@H](O)/C=C/[C@H]1C(=O)C[C@H](O)[C@@H]1C/C=C\CCCC(=O)O [PGD2, prostaglandin D2]
[5]; Compound 1 0 μM, read-out: IC50 of PGD2
  IC50: 0.0388 ± 0.0025 µM
[5]; in the presence of Compound 1 0.1 μM, read-out: IC50 of PGD2
  IC50: 0.0712 ± 0.0082 µM
[5]; in the presence of Compound 1 1 μM, *P<0.05, read-out: IC50 of PGD2
  IC50: 0.194 ± 0.028 µM
